Here are results for 16 compounds from patent publication US20250248970A1, “NOVEL SUBSTITUTED FLUORINATED N-PROPYL-PYRROLIDINE COMPOUNDS, PROCESSES FOR THEIR PREPARATION AND THERAPEUTIC USES THEREOF” (SANOFI, priority 2022, published 2025).

This test concerns the target T1, ERα (Homo sapiens, UniProt P03372).
T1 construct: host or cells: MCF7
T1 sequence (P03372 1-595): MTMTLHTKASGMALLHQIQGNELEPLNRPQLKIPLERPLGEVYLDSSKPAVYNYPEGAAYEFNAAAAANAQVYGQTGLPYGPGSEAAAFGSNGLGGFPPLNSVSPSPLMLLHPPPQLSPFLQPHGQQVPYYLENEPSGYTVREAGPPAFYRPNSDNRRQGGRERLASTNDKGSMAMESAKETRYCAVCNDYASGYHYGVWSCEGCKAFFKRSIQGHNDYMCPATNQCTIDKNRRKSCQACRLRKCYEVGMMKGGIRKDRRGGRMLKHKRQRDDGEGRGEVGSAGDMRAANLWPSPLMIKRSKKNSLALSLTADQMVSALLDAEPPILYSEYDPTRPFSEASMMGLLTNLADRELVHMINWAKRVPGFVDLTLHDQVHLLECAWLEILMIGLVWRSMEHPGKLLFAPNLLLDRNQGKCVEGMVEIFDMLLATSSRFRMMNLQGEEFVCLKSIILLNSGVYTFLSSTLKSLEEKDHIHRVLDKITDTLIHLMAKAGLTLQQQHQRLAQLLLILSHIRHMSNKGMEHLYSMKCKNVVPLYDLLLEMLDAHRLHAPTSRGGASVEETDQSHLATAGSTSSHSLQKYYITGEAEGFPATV
Briefly: Estrogen receptor degradation activity (breast cancer cell ERα in cell western assay). In kind it is cell-based. The note with it: MCF7 cells, 0.3 μM, 4 hours, % of ERα levels decrease relative to fulvestrant. On the procedure: Said test involves measuring the in vitro degradation activity of the compounds of the Table 1a.
The measurements of the degradation activities were made using a breast cancer cell ERα in cell western assay as described hereunder.
MCF7 cells (ATCC) were seeded in 384 wells microplate (collagen coated) at a concentration of 10000 cells/30 μL per well in red phenol free MEM alpha medium (invitrogen) containing 5% charcoal dextran striped FBS. The following day, 9 points serial 1:5 dilution of each compound was added to the cells in 2.5p L at final concentrations ranging from 0.3-0.0000018 μM (in table 2), or 0.1 μM for fulvestrant (using as positive control). At 4 hours post compound addition the cells were fixed by adding 25 μL of formalin (final concentration 5% formalin containing 0.1% triton) for 10 minutes at room temperature and then washed twice with PBS. Then, 50 μL of LI-COR blocking buffer containing 0.1% Triton was added to plate for 30 minutes at room temperature. LI-COR blocking buffer was removed and cells were incubated overnight at cold room with 50 μL anti-ER rabbit monoclonal antibody (Thermo scientific MA1-39540) diluted at 1:1000 in LI-COR blocking buffer containing 0.1% tween-20. Wells which were treated with blocking buffer but no antibody were used as background control. Wells were washed twice with PBS (0.1% tween-20) and incubated at 37° C. for 60 minutes in LI-COR (0.1% tween-20) containing goat anti-rabbit antibody Alexa 488 (1:1000) and Syto-64 a DNA dye (2 μM final concentration). Cells were then washed 3 times in PBS and scanned in ACUMEN explorer (TTP-Labtech). Integrated intensities in the green fluorescence and red fluorescence were measured to determine the levels of ERα and DNA respectively.
The degradation activity with respect to estrogen receptors in this test is given by the concentration which degrades 50% of the estrogen receptor (or IC50) in nM.
The % of ERα levels decrease were determined as follows: % inhibition=100*(1−(sample−fulvestrant: DMSO−fulvestrant)).
`O=C(O)C(F)(F)F.O=C(O)c1ccc2c(c1)CCCC(c1ccc(Cl)cc1Cl)=C2c1ccc(CC2(F)CCN(CCCF)C2)cc1` (single isomer, unassigned; isomer 1) [Compound 23, 8-(2,4-dichlorophenyl)-9-(4-((3-fluoro-1-(3-fluoropropyl)pyrrolidin-3-yl)methyl)phenyl)-6,7-dihydro-5H-benzo[7]annulene-3-carboxylic acid, 2,2,2-trifluoroacetic acid, Isomer 1]: the “% Degradation At 0.3 μM” value worked out at 69%.

As to `CC1CCc2cc(C(=O)O)ccc2C(c2ccc(CC3CCN(CCCF)C3)cc2)=C1c1ccc(C(F)(F)F)cc1` (single isomer, unassigned; isomer 1) [Compound 41, 9-(4-((1-(3-fluoropropyl)pyrrolidin-3-yl)methyl)phenyl)-7-methyl-8-(4-(trifluoromethyl)phenyl)-6,7-dihydro-5H-benzo[7]annulene-3-carboxylic acid, Isomer 1], the “% Degradation At 0.3 μM” value is recorded as 100%.

In the case of `O=C(O)c1ccc2c(c1)CCCC(c1ccc(Cl)cc1Cl)=C2c1ccc(C[C@@H]2CCN(CCCF)C2)cc1` [Compound 24, 8-(2,4-dichlorophenyl)-9-(4-((1-(3-fluoropropyl)pyrrolidin-3-yl)methyl)phenyl)-6,7-dihydro-5H-benzo[7]annulene-3-carboxylic acid, (R) Isomer], the “% Degradation At 0.3 μM” value is recorded as 46%.

On to `O=C(O)C(F)(F)F.O=C(O)c1ccc2c(c1)CCCC(c1ccc(Cl)cc1Cl)=C2c1ccc(CC2(F)CCN(CCCF)C2)cc1` (single isomer, unassigned; isomer 2) [Compound 22, 8-(2,4-dichlorophenyl)-9-(4-((3-fluoro-1-(3-fluoropropyl)pyrrolidin-3-yl)methyl)phenyl)-6,7-dihydro-5H-benzo[7]annulene-3-carboxylic acid, 2,2,2-trifluoroacetic acid, Isomer 2], for which the “% Degradation At 0.3 μM” value was determined as 48%.

Consider `O=C(O)c1ccc2c(c1)CCCC(c1ccc(F)cc1C(F)(F)F)=C2c1ccc(CC2CCN(CCCF)C2)cc1` (single isomer, unassigned; isomer 1) [Compound 18, 8-(4-fluoro-2-(trifluoromethyl)phenyl)-9-(4-((1-(3-fluoropropyl)pyrrolidin-3-yl)methyl)phenyl)-6,7-dihydro-5H-benzo[7]annulene-3-carboxylic acid, Isomer 1], for which the “% Degradation At 0.3 μM” value was 86%.

Turning to `Cl.O=C(O)c1ccc2c(c1)CCCC(c1ccc(Cl)cc1)=C2c1ccc(CC2CCN(CCCF)C2)cc1` (single isomer, unassigned; isomer 1) [Compound 37, 8-(4-chlorophenyl)-9-(4-((1-(3-fluoropropyl)pyrrolidin-3-yl)methyl)phenyl)-6,7-dihydro-5H-benzo[7]annulene-3-carboxylic acid hydrochloride, Isomer 1], the “% Degradation At 0.3 μM” value is reported as 93%.

Consider `COc1ccc(C2=C(c3ccc(CC4CCN(CCCF)C4)cc3)c3ccc(C(=O)O)cc3CCC2)cn1` (single isomer, unassigned; isomer 1) [Compound 14, 9-(4-((1-(3-fluoropropyl)pyrrolidin-3-yl)methyl)phenyl)-8-(6-methoxypyridin-3-yl)-6,7-dihydro-5H-benzo[7]annulene-3-carboxylic acid, Isomer 1], for which the “% Degradation At 0.3 μM” value amounted to 88%.

With `Cl.O=C(O)c1ccc2c(c1)CCCC(c1ccc(F)cc1Cl)=C2c1ccc(CC2CCN(CCC(F)F)C2)cc1` (single isomer, unassigned; isomer 1) [Compound 27, 8-(2-chloro-4-fluorophenyl)-9-(4-((1-(3,3-difluoropropyl)pyrrolidin-3-yl)methyl)phenyl)-6,7-dihydro-5H-benzo[7]annulene-3-carboxylic acid hydrochloride, Isomer 1], the “% Degradation At 0.3 μM” value came to 73%.

In the case of `Cl.O=C(O)c1ccc2c(c1)CCCC(c1ccc(C(F)(F)F)cc1)=C2c1ccc(CC2CCN(CCCF)C2)cc1` (single isomer, unassigned; isomer 1) [Compound 38, 9-(4-((1-(3-fluoropropyl)pyrrolidin-3-yl)methyl)phenyl)-8-(4-(trifluoromethyl)phenyl)-6,7-dihydro-5H-benzo[7]annulene-3-carboxylic acid hydrochloride, Isomer 1], the “% Degradation At 0.3 μM” value was found to be 92%.

Regarding `Cl.O=C(O)c1ccc2c(c1)CCCC(c1cccc(Cl)c1)=C2c1ccc(CC2CCN(CCCF)C2)cc1` (single isomer, unassigned; isomer 1) [Compound 40, 8-(3-chlorophenyl)-9-(4-((1-(3-fluoropropyl)pyrrolidin-3-yl)methyl)phenyl)-6,7-dihydro-5H-benzo[7]annulene-3-carboxylic acid hydrochloride, Isomer 1], the “% Degradation At 0.3 μM” value came to 73%.

On to `O=C(O)c1ccc2c(c1)CCCC(c1ccc(F)cc1F)=C2c1ccc(CC2CCN(CCC(F)F)C2)cc1` (single isomer, unassigned; isomer 1) [Compound 10, 8-(2,4-difluorophenyl)-9-(4-((1-(3,3-difluoropropyl)pyrrolidin-3-yl)methyl)phenyl)-6,7-dihydro-5H-benzo[7]annulene-3-carboxylic acid, Isomer 1], for which the “% Degradation At 0.3 μM” value was found to be 84%.

For `Cc1cccc(C2=C(c3ccc(CC4CCN(CCC(F)F)C4)cc3)c3ccc(C(=O)O)cc3CCC2)c1C(F)(F)F.Cl` (single isomer, unassigned; isomer 1) [Compound 34, 9-(4-((1-(3,3-difluoropropyl)pyrrolidin-3-yl)methyl)phenyl)-8-(3-methyl-2-(trifluoromethyl)phenyl)-6,7-dihydro-5H-benzo[7]annulene-3-carboxylic acid hydrochloride, Isomer 1], the “% Degradation At 0.3 μM” value was determined as 85%.

Turning to `Cc1cc(F)cc(C)c1C1=C(c2ccc(CC3CCN(CCC(F)F)C3)cc2)c2ccc(C(=O)O)cc2CCC1.Cl` (single isomer, unassigned; isomer 1) [Compound 32, 9-(4-((1-(3,3-difluoropropyl)pyrrolidin-3-yl)methyl)phenyl)-8-(4-fluoro-2,6-dimethylphenyl)-6,7-dihydro-5H-benzo[7]annulene-3-carboxylic acid hydrochloride, Isomer 1], the “% Degradation At 0.3 μM” value is recorded as 76%.

Consider `Cl.O=C(O)c1ccc2c(c1)OCCC(c1ccc(Cl)cc1Cl)=C2c1ccc(CC2CCN(CCCF)C2)cc1` (single isomer, unassigned; isomer 2) [Compound 8, 4-(2,4-dichlorophenyl)-5-(4-((1-(3-fluoropropyl)pyrrolidin-3-yl)methyl)phenyl)-2,3-dihydrobenzo[b]oxepine-8-carboxylic acid hydrochloride, Isomer 2], for which the “% Degradation At 0.3 μM” value is listed as 63%.

On to `Cl.O=C(O)c1ccc2c(c1)CCCC(c1cccc(C(F)(F)F)c1)=C2c1ccc(CC2CCN(CCCF)C2)cc1` (single isomer, unassigned; isomer 1) [Compound 39, 9-(4-((1-(3-fluoropropyl)pyrrolidin-3-yl)methyl)phenyl)-8-(3-(trifluoromethyl)phenyl)-6,7-dihydro-5H-benzo[7]annulene-3-carboxylic acid hydrochloride, Isomer 1], for which the “% Degradation At 0.3 μM” value stood at 76%.

As to `Cl.Oc1ccc2c(c1)CCCC(c1ccc(Cl)cc1Cl)=C2c1ccc(CC2CCN(CCCF)C2)cc1` (single isomer, unassigned; isomer 1) [Compound 29, 8-(2,4-dichlorophenyl)-9-(4-((1-(3-fluoropropyl)pyrrolidin-3-yl)methyl)phenyl)-6,7-dihydro-5H-benzo[7]annulene-3-ol hydrochloride, Isomer 1], the “% Degradation At 0.3 μM” value came out at 76%.
